Values joined by “and” are separate entries in the source; they are usually repeats but may differ in a detail not shown here. Equal values may be shown once. Active and inactive are the calls of the source. The rule behind the calls is not given here.
Assays:
Plasmodium falciparum [1] = test: Antimalarial activity against chloroquine-sensitive Plasmodium falciparum 3D7 infected in human erythrocyte assessed as parasite viability after 48 hrs by [3H]hypoxanthine incorporation based liquid scintillation counting analysis; type: functional, organism-based
[2] = target: T1, Falcipain 2 (Plasmodium falciparum) (UniProt Q9N6S8); test: Inhibition of Plasmodium falciparum Falcipain 2 at 5 nM by hemoglobin hydrolysis assay
T1 sequence (whole entry): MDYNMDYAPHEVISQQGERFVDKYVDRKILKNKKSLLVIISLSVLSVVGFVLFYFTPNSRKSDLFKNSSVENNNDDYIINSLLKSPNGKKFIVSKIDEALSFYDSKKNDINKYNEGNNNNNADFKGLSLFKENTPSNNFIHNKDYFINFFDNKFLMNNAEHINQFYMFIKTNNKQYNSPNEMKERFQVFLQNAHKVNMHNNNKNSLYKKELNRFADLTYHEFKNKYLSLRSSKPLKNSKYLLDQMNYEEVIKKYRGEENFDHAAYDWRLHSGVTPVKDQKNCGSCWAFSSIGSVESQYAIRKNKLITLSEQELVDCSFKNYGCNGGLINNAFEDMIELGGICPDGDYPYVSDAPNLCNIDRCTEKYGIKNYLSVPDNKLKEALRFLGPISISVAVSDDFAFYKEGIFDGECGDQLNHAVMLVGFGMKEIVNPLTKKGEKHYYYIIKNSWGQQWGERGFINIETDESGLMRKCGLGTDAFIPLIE

[3] = target: T1, Falcipain 2 (Plasmodium falciparum); test: Inhibition of Plasmodium falciparum Falcipain 2 using Z-Leu-Arg-AMC substrate assessed as fluorogenic substrate hydrolysis
[4] = target: T1, Falcipain 2 (Plasmodium falciparum); test: Inhibition of Plasmodium falciparum Falcipain 2 at 500 nM by hemoglobin hydrolysis assay
Plasmodium falciparum [5] = test: Antimicrobial activity against chloroquine-sensitive Plasmodium falciparum 3D7 infected in human erythrocyte assessed as parasite viability at 6.25 to 25 ng/ml after 42 hrs by [3H]hypoxanthine incorporation based liquid scintillation counting analysis; type: functional, organism-based
[6] = Toxicity in human erythrocytes assessed as hemolytic activity up to 50 ug/ml after 42 hrs by spectrophotometric analysis; type: cell-based; settings: erythrocyte
Plasmodium falciparum [7] = test: Antimicrobial activity against blood stage chloroquine-sensitive Plasmodium falciparum 3D7 infected in human erythrocyte assessed as abnormal morphologies at 21.8 uM after 6 hrs by Giemsa staining based light microscopy; type: functional, organism-based
Plasmodium falciparum [8] = test: Antimalarial activity against chloroquine-sensitive Plasmodium falciparum 3D7 infected in human erythrocyte assessed as parasite viability after 60 hrs by [3H]hypoxanthine incorporation based liquid scintillation counting analysis; type: functional, organism-based
Plasmodium falciparum [9] = test: Antimicrobial activity against ring stage trophozoite chloroquine-sensitive Plasmodium falciparum 3D7 infected in human erythrocyte assessed as abnormal morphologies at 21.8 uM after 16 hrs by Giemsa staining based light microscopy; type: functional, organism-based
Plasmodium falciparum [10] = test: Antimalarial activity against chloroquine-sensitive Plasmodium falciparum 3D7 infected in human erythrocyte assessed as parasite viability after 90 hrs by [3H]hypoxanthine incorporation based liquid scintillation counting analysis; type: functional, organism-based
Plasmodium falciparum [11] = test: Antimicrobial activity against blood stage chloroquine-sensitive Plasmodium falciparum 3D7 infected in human erythrocyte assessed as inhibition of invasion event of merozoites after 6 hrs by Giemsa staining based light microscopy; type: functional, organism-based
Plasmodium falciparum [12] = test: Antimicrobial activity against chloroquine-resistant Plasmodium falciparum 7G8 infected in human erythrocyte assessed as parasite viability after 48 hrs by [3H]hypoxanthine incorporation based liquid scintillation counting analysis; type: functional
Plasmodium falciparum [13] = test: Antimicrobial activity against ring stage trophozoite chloroquine-sensitive Plasmodium falciparum 3D7 infected in human erythrocyte assessed as abnormal morphologies at 43.68 uM after 16 hrs by Giemsa staining based light microscopy; type: functional, organism-based
Plasmodium falciparum [14] = test: Antimicrobial activity against blood stage chloroquine-sensitive Plasmodium falciparum 3D7 infected in human erythrocyte assessed as abnormal morphologies at 43.68 uM after 6 hrs by Giemsa staining based light microscopy; type: functional, organism-based
Plasmodium falciparum [15] = test: Antimicrobial activity against chloroquine-sensitive Plasmodium falciparum 3D7 infected in human erythrocyte assessed as parasite viability after 42 hrs by [3H]hypoxanthine incorporation based liquid scintillation counting analysis in presence of 25 ng/ml; type: functional, organism-based
Plasmodium falciparum [16] = test: Antimicrobial activity against chloroquine-sensitive Plasmodium falciparum 3D7 infected in human erythrocyte assessed as parasite viability after 42 hrs by [3H]hypoxanthine incorporation based liquid scintillation counting analysis in presence of 12.5 ng/ml; type: functional, organism-based
Plasmodium falciparum [17] = test: Antimicrobial activity against blood stage chloroquine-sensitive Plasmodium falciparum 3D7 infected in human erythrocyte assessed as abnormal morphologies at 55.28 uM after 6 hrs by Giemsa staining based light microscopy; type: functional, organism-based
Plasmodium falciparum [18] = test: Antimicrobial activity against ring stage trophozoite chloroquine-sensitive Plasmodium falciparum 3D7 infected in human erythrocyte assessed as abnormal morphologies at 55.28 uM after 16 hrs by Giemsa staining based light microscopy; type: functional, organism-based
Plasmodium falciparum [19] = test: Antimicrobial activity against blood stage chloroquine-sensitive Plasmodium falciparum 3D7 infected in human erythrocyte assessed as abnormal morphologies at 27.64 uM after 6 hrs by Giemsa staining based light microscopy; type: functional, organism-based
Plasmodium falciparum [20] = test: Antimicrobial activity against ring stage trophozoite chloroquine-sensitive Plasmodium falciparum 3D7 infected in human erythrocyte assessed as abnormal morphologies at 27.64 uM after 16 hrs by Giemsa staining based light microscopy; type: functional, organism-based
Plasmodium falciparum [21] = test: Antimicrobial activity against chloroquine-sensitive Plasmodium falciparum 3D7 infected in human erythrocyte assessed as parasite viability after 42 hrs by [3H]hypoxanthine incorporation based liquid scintillation counting analysis in presence of 6.25 ng/ml; type: functional, organism-based

Which IC50 (Plasmodium falciparum [1]) does the source give for CC(C)[C@@H](C(=O)N1CCC(Cc2ccccc2)CC1)N1C(=O)c2ccccc2C1=O here?
The IC50 was 19.5 µg/mL and 48.2 µM.

For CC(C)[C@@H](C(=O)N1CCCC1)N1C(=O)c2ccccc2C1=O, which IC50 (Plasmodium falciparum [1]) is on record?
The IC50 was 42.5 µg/mL and 142 µM.

With CC(C)C[C@@H](C(=O)N1CCCC1)N1C(=O)c2ccccc2C1=O as the molecule, how does the IC50 (Plasmodium falciparum [1]) read?
The IC50 was 74.2 µg/mL and 236 µM.

Which IC50 (Plasmodium falciparum [1]) does the source give for CC(C)[C@@H](C(=O)N1CCCCC1)N1C(=O)c2ccccc2C1=O here?
Its IC50 is 41 µg/mL and 130 µM.

Which IC50 (Plasmodium falciparum [1]) does the source give for CC[C@@H](C)[C@@H](C(=O)N1CCCCC1)N1C(=O)c2ccccc2C1=O here?
Its IC50 is 35 µg/mL and 107 µM.

For O=C([C@H](Cc1ccccc1)N1C(=O)c2ccccc2C1=O)N1CCCC1, which inhibition [2] is on record?
Its inhibition is “Active”.

And the IC50 (Plasmodium falciparum [1])?
Its IC50 is 31.5 µg/mL and 87.6 µM.

What about the inhibition [3] of the same molecule?
Its inhibition is “Active”.

And the inhibition [4]?
The inhibition was “Active”.

For CC(C)C[C@@H](C(=O)N1CCC(Cc2ccccc2)CC1)N1C(=O)c2ccccc2C1=O, which IC50 (Plasmodium falciparum [1]) is on record?
Its IC50 is 18.5 µg/mL and 44.2 µM.

For CC(C)C[C@@H](C(=O)N1CCOCC1)N1C(=O)c2ccccc2C1=O, which IC50 (Plasmodium falciparum [1]) is on record?
The IC50 was 46 µg/mL and 139 µM.

For CC(C)[C@@H](C(=O)N1CCN(C(=O)[C@H](C(C)C)N2C(=O)c3ccccc3C2=O)CC1)N1C(=O)c2ccccc2C1=O, which IC50 (Plasmodium falciparum [1]) is on record?
The IC50 was 9.2 µg/mL and 16.9 µM.

For O=C([C@H](Cc1ccccc1)N1C(=O)c2ccccc2C1=O)N1CCCCC1, which IC50 (Plasmodium falciparum [1]) is on record?
Its IC50 is 13 µg/mL and 36 µM.

What does the source list for C[C@@H]1CC[C@H]2[C@@H](C)C(=O)O[C@@H]3O[C@@]4(C)CC[C@@H]1[C@]32OO4 [ARTEMISININ]?
inhibition (Plasmodium falciparum [5]): inactive; IC50 (Plasmodium falciparum [1]): 0.045 µg/mL and 159 nM

For CC[C@@H](C)[C@@H](C(=O)N1CCCC1)N1C(=O)c2ccccc2C1=O, which IC50 (Plasmodium falciparum [1]) is on record?
Its IC50 is 46 µg/mL and 146 µM.

With CC(C)C[C@@H](C(=O)N1CCCCC1)N1C(=O)c2ccccc2C1=O as the molecule, how does the IC50 (Plasmodium falciparum [1]) read?
Its IC50 is 71.5 µg/mL and 218 µM.

Which IC50 (Plasmodium falciparum [1]) does the source give for CC(C)C[C@@H](C(=O)N1CCN(C(=O)[C@H](CC(C)C)N2C(=O)c3ccccc3C2=O)CC1)N1C(=O)c2ccccc2C1=O here?
The IC50 was 61 µg/mL and 203 µM.

For O=C([C@H](Cc1ccccc1)N1C(=O)c2ccccc2C1=O)N1CCOCC1, which inhibition [2] is on record?
Its inhibition is “Active”.

And the IC50 (Plasmodium falciparum [1])?
Its IC50 is 18 µg/mL and 49.4 µM.

And the inhibition [3]?
Its inhibition is “Active”.

What about the inhibition [4] of the same molecule?
Its inhibition is “Active”.

For O=C([C@H](Cc1ccccc1)N1C(=O)c2ccccc2C1=O)N1CCN(C(=O)[C@H](Cc2ccccc2)N2C(=O)c3ccccc3C2=O)CC1, which IC50 (Plasmodium falciparum [1]) is on record?
The IC50 was 33.8 µg/mL and 52.7 µM.

And the inhibition [3]?
The inhibition was “Active”.

For CC(C)[C@@H](C(=O)N1CCOCC1)N1C(=O)c2ccccc2C1=O, which IC50 (Plasmodium falciparum [1]) is on record?
The IC50 was 65 µg/mL and 206 µM.

With CC[C@@H](C)[C@@H](C(=O)N1CCOCC1)N1C(=O)c2ccccc2C1=O as the molecule, how does the IC50 (Plasmodium falciparum [1]) read?
The IC50 was 20 µg/mL and 60.6 µM.

For CC[C@H](C)[C@@H](C(=O)N1CCC(Cc2ccccc2)CC1)N1C(=O)c2ccccc2C1=O, which IC50 (Plasmodium falciparum [1]) is on record?
Its IC50 is 22.5 µg/mL and 53.8 µM.

With O=C([C@H](Cc1ccccc1)N1C(=O)c2ccccc2C1=O)N1CCC(Cc2ccccc2)CC1 as the molecule, how does the Activity [6] read?
Its Activity is “Non-toxic”.

What about the Activity (Plasmodium falciparum [7]) of the same molecule?
Its Activity is “Active”.

And the IC50 (Plasmodium falciparum [8])?
Its IC50 is 5 µM.

What about the Activity (Plasmodium falciparum [9]) of the same molecule?
Its Activity is “Active”.

And the IC50 (Plasmodium falciparum [1])?
Its IC50 is 5.5 µg/mL and 12.2 µM.

And the IC50 (Plasmodium falciparum [10])?
The IC50 was 3.8 µM.

And the inhibition (Plasmodium falciparum [11])?
Its inhibition is “Dose-dependent effect”.

What about the IC50 (Plasmodium falciparum [12]) of the same molecule?
Its IC50 is 13.3 µM.

What about the Activity (Plasmodium falciparum [13]) of the same molecule?
The Activity was “Active”.

What about the Activity (Plasmodium falciparum [14]) of the same molecule?
The Activity was “Active”.

For CC[C@@H](C)[C@@H](C(=O)N1CCN(C(=O)[C@H]([C@H](C)CC)N2C(=O)c3ccccc3C2=O)CC1)N1C(=O)c2ccccc2C1=O, which IC50 (Plasmodium falciparum [15]) is on record?
The IC50 was 1.39 µM.

What about the IC50 (Plasmodium falciparum [16]) of the same molecule?
Its IC50 is 1.92 µM.

What about the Activity [6] of the same molecule?
Its Activity is “Non-toxic”.

And the IC50 (Plasmodium falciparum [8])?
Its IC50 is 2 µM.

What about the Activity (Plasmodium falciparum [17]) of the same molecule?
The Activity was “Active”.

What about the Activity (Plasmodium falciparum [18]) of the same molecule?
The Activity was “Active”.

And the Activity (Plasmodium falciparum [19])?
The Activity was “Active”.

What about the Activity (Plasmodium falciparum [20]) of the same molecule?
Its Activity is “Active”.

What about the IC50 (Plasmodium falciparum [1]) of the same molecule?
Its IC50 is 3.42 µg/mL and 5.97 µM.

And the IC50 (Plasmodium falciparum [10])?
Its IC50 is 1.1 µM.

And the inhibition (Plasmodium falciparum [11])?
The inhibition was “Dose-dependent effect”.

What about the IC50 (Plasmodium falciparum [21]) of the same molecule?
The IC50 was 2.44 µM.

And the IC50 (Plasmodium falciparum [12])?
Its IC50 is 7.21 µM.
